Test results published in ChEMBL document CHEMBL1201862, “PubChem BioAssay data set” (2004).
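Tested at 5 concentrations; 48 h exposure; 96-well plates; endpoints linearly interpolated, else capped at highest concentration. GI50 is the concentration that inhibits growth by half.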 The source made the active and inactive calls. Rule as the data show it: active = GI50 up to about 1.1 µM and inactive = higher.

Experiments:
Assay in all cases: growth of human tumour cells (NCI), 48 h
IGROV-1 = system: IGROV-1
T47D = system: T47D
UO-31 = system: UO-31
CAKI-1 = system: CAKI-1
HL-60 = system: HL-60
786-0 = system: 786-0
HCT-116 = system: HCT-116
HCT-15 = system: HCT-15
MDA-MB-435 = system: MDA-MB-435
MDA-MB-231 = system: MDA-MB-231
RXF 393 = system: RXF 393
OVCAR-8 = system: OVCAR-8
EKVX = system: EKVX
SW-620 = system: SW-620
K562 = system: K562
SK-MEL-28 = system: SK-MEL-28
SNB-75 = system: SNB-75
HCC 2998 = system: HCC 2998
SF-539 = system: SF-539
UACC-62 = system: UACC-62
RPMI-8226 = system: RPMI-8226
A549 = system: A549
SK-MEL-5 = system: SK-MEL-5
A498 = system: A498
SN12C = system: SN12C
ACHN = system: ACHN
BT-549 = system: BT-549
OVCAR-5 = system: OVCAR-5
HT-29 = system: HT-29
NCI-H226 = system: NCI-H226
OVCAR-3 = system: OVCAR-3
LOX IMVI = system: LOX IMVI
SF-268 = system: SF-268
MCF7 = system: MCF7
MDA-N = system: MDA-N
M14 = system: M14
HOP-92 = system: HOP-92
SK-OV-3 = system: SK-OV-3
MOLT-4 = system: MOLT-4
SNB-19 = system: SNB-19
COLO 205 = system: COLO 205
NCI-H460 = system: NCI-H460
SK-MEL-2 = system: SK-MEL-2
U-251 = system: U-251
NCI-H522 = system: NCI-H522
CCRF-CEM = system: CCRF-CEM
NCI/ADR-RES = system: NCI/ADR-RES
UACC-257 = system: UACC-257
OVCAR-4 = system: OVCAR-4
Hs-578T = system: Hs-578T
TK-10 = system: TK-10
SF-295 = system: SF-295
PC-3 = system: PC-3
NCI-H23 = system: NCI-H23
KM12 = system: KM12
DU-145 = system: DU-145
HOP-62 = system: HOP-62
Malme-3M = system: Malme-3M

Measured: GI50

O=C1c2cccnc2-c2nccc3ccnc1c23
366 nM: HCT-15
active: IGROV-1 548 nM | T47D 622 nM | UO-31 726 nM | CAKI-1 116 nM | HL-60 24.8 nM | 786-0 461 nM | HCT-116 86.5 nM | MDA-MB-435 219 nM | OVCAR-8 755 nM | SW-620 474 nM | K562 45.6 nM | SNB-75 1080 nM | UACC-62 601 nM | RPMI-8226 195 nM | SK-MEL-5 610 nM | SN12C 1040 nM | ACHN 158 nM | HT-29 575 nM | OVCAR-3 343 nM | LOX IMVI 418 nM | SF-268 1110 nM | MCF7 240 nM | MDA-N 200 nM | M14 1020 nM | HOP-92 687 nM | MOLT-4 413 nM | SNB-19 1030 nM | COLO 205 372 nM | NCI-H460 58.3 nM | U-251 1050 nM | NCI-H522 163 nM | CCRF-CEM 30.9 nM | NCI/ADR-RES 294 nM | UACC-257 964 nM | NCI-H23 281 nM | DU-145 966 nM | Malme-3M 853 nM
inactive: MDA-MB-231 1320 nM | RXF 393 1130 nM | EKVX 1580 nM | SK-MEL-28 1200 nM | HCC 2998 1400 nM | SF-539 1500 nM | A549 1600 nM | A498 5000 nM | BT-549 1430 nM | OVCAR-5 2070 nM | NCI-H226 1580 nM | SK-OV-3 1490 nM | SK-MEL-2 2160 nM | OVCAR-4 1910 nM | Hs-578T 2020 nM | TK-10 1700 nM | SF-295 1290 nM | PC-3 1360 nM | KM12 1540 nM | HOP-62 3530 nM
